Results on eleven molecules are retold here after ChEMBL document CHEMBL1201862, “PubChem BioAssay data set” (2004).

Assay in all cases: growth of human tumour cells (NCI), 48 h
Experiment [1] deals with ACHN.
Experiment [2] relates to CCRF-CEM.
In experiment [3] the test system is DU-145.
Experiment [4] has as its system HOP-62.
For experiment [5], the system named is K562.
Experiment [6] has as its system LOX IMVI.
The subject of experiment [7] is M14.
Experiment [8] concerns MCF7.
Experiment [9] relates to MDA-MB-435.
The test system of experiment [10] is MOLT-4.
The test system of experiment [11] is NCI-H226.
The test system of experiment [12] is OVCAR-3.
The test system of experiment [13] is RPMI-8226.
Experiment [14] relates to SK-MEL-2.
Experiment [15] deals with SK-OV-3.
Experiment [16] concerns SNB-19.
Experiment [17] concerns T47D.
For experiment [18], the system named is HL-60.
In experiment [19] the test system is IGROV-1.
The test system of experiment [20] is TK-10.

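Grown in 96-well plates, cells were treated for 48 hours with each compound at five concentrations. Insufficient inhibition: endpoint recorded as highest concentration tested. Abbreviation: GI50, concentration required for 50% inhibition of growth.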 Calls of active or inactive are those of the source. No stated cut-off is given here; in the data, active = GI50 up to about 1.1 µM and inactive = higher.

Regarding `O=c1[nH]nc(-c2ccccc2)n1/N=C/c1cccs1`, the GI50 was 70 µM (inactive) in [1]; 43.1 µM (inactive) in experiment [2]; 32.3 µM (inactive) in experiment [3]; > 100 µM (inactive) in [4]; 38.1 µM (inactive) in experiment [5]; 43.2 µM (inactive) in [6]. Also, the GI50 in experiment [7] is > 100 µM (inactive); in experiment [8], 46.6 µM (inactive); in [9], 28.2 µM (inactive); in [10], 31.6 µM (inactive); in experiment [11] it was 59.4 µM (inactive); in [12], > 100 µM (inactive). The GI50 in experiment [13] was 27.1 µM (inactive); in experiment [14], 99.5 µM (inactive); in [15], > 100 µM (inactive); in experiment [16] it was > 100 µM (inactive); in experiment [17], 38.1 µM (inactive).

In the case of `C/C(=N\NC(=S)N1CC2CCC(CC2)C1)c1cccc(C)n1`, the GI50 in experiment [1] is 0.59 µM (active); in experiment [2] it was 0.01 µM (active); in experiment [3], 0.617 µM (active); in [18], 0.01 µM (active); in [4], 1.06 µM (active); in experiment [19] it was 0.815 µM (active). The GI50 in [5] is < 0.0112 µM (active); in experiment [6] it was 0.78 µM (active); in experiment [7], 0.269 µM (active); in [9], 1.77 µM (inactive); in experiment [10] it was 0.01 µM (active); in [11], 0.841 µM (active). Moreover, the GI50 is 0.01 µM (active) in [12]; 0.31 µM (active) in [13]; 4.7 µM (inactive) in experiment [14]; 0.809 µM (active) in [15]; 1.75 µM (inactive) in experiment [16]; 0.01 µM (active) in experiment [17]. In [20], the GI50 was 2.54 µM (inactive).

Turning to `O=C(O)CSc1nc2ccccc2[nH]1`, the GI50 in experiment [1], in [3], in experiment [4], in [19], in [5] and in [6] was > 100 µM (inactive) each time. Further, the GI50 in experiment [7] was > 100 µM (inactive); in experiment [9] it was > 100 µM (inactive); in experiment [10] it was 6.25 µM (inactive); in experiment [12], > 100 µM (inactive); in experiment [14], 74.1 µM (inactive); in experiment [16] it was > 100 µM (inactive). Further, the GI50 in experiment [17] and in experiment [20] was > 100 µM (inactive) throughout.

With `C=C1C[C@]23CC[C@@H]4C(CO)(CO)CC(=O)C[C@]4(C)[C@@H]2CC[C@H]1C3`, the GI50 was > 100 µM (inactive) in experiment [1]; > 100 µM (inactive) in experiment [2]; > 100 µM (inactive) in experiment [3]; > 100 µM (inactive) in experiment [18]; > 100 µM (inactive) in experiment [4]; 57.9 µM (inactive) in experiment [19]. Further, the GI50 in experiment [5], in experiment [6], in experiment [7], in [8], in experiment [9] and in experiment [10] was > 100 µM (inactive) each time. Besides, the GI50 is 93.8 µM (inactive) in experiment [11]; > 100 µM (inactive) in [12]; > 100 µM (inactive) in experiment [13]; > 100 µM (inactive) in experiment [14]; > 100 µM (inactive) in [15]; 21.5 µM (inactive) in experiment [16]. Further, the GI50 in [20] is > 100 µM (inactive).

Regarding `C/C=C/c1c(O)c(=O)c2c(OC)cc(OC)c3c4c(OC)cc(OC)c5c(=O)c(O)c(/C=C/C)c(c1c23)c54`, the GI50 was 2.86 µM (inactive) in experiment [1]; 5.46 µM (inactive) in experiment [2]; 8.07 µM (inactive) in [3]; 16.3 µM (inactive) in experiment [4]; 5.96 µM (inactive) in experiment [19]; 3.4 µM (inactive) in [5]. The GI50 in experiment [6] is 8.55 µM (inactive); in experiment [7] it was 9.42 µM (inactive); in [8], 14.5 µM (inactive); in experiment [9], 5.82 µM (inactive); in experiment [10], 4.03 µM (inactive); in experiment [11], < 0.01 µM (active). Besides, the GI50 is 3.99 µM (inactive) in experiment [12]; 6.92 µM (inactive) in [13]; 10.2 µM (inactive) in experiment [14]; 39.9 µM (inactive) in experiment [15]; 1.95 µM (inactive) in experiment [16]; > 10 µM (inactive) in experiment [20].

Take `Cc1cn([C@H]2[C@@H](CO)C[C@H]2O)c(=O)[nH]c1=O`: the GI50 in experiment [1], in experiment [2], in [3], in experiment [18], in [4] and in experiment [19] was > 100 µM (inactive) in each case. The GI50 in experiment [5], in [6], in experiment [8], in [9], in experiment [10] and in experiment [11] was > 100 µM (inactive) in each case. Further, the GI50 in [12], in experiment [13], in [14] and in experiment [20] was > 100 µM (inactive) each time.

Consider `Cc1ccc(S(=O)(=O)N/N=C2\C(=O)Nc3cc(O)c(C(=O)O)cc32)cc1`, for which the GI50 in experiment [1], in [2], in [3], in experiment [4], in [19] and in [5] was > 100 µM (inactive) in each case. Also, the GI50 in [6], in experiment [7], in [8], in experiment [9], in experiment [10] and in experiment [11] was > 100 µM (inactive) in each case. For the same molecule, the GI50 in [12], in [13], in experiment [14], in experiment [15], in [16] and in experiment [17] was > 100 µM (inactive) in each case. Also, the GI50 in [20] is > 100 µM (inactive).

On to `O=C(O/C=C\OC1CCCC1(c1ccccc1)c1ccccc1)c1ccccc1` (centres undefined), for which the GI50 in experiment [1] was 4.1 µM (inactive); in experiment [2], 2.04 µM (inactive); in experiment [3] it was 3.02 µM (inactive); in experiment [18], 1.84 µM (inactive); in experiment [4] it was 18.8 µM (inactive); in [19], 2.6 µM (inactive). The GI50 was 4.19 µM (inactive) in experiment [5]; 1.67 µM (inactive) in experiment [6]; 2.79 µM (inactive) in [7]; 2.6 µM (inactive) in experiment [8]; 4.29 µM (inactive) in [10]; 19.8 µM (inactive) in experiment [11]. The GI50 in experiment [12] was 9.2 µM (inactive); in [13], 2.61 µM (inactive); in experiment [14], 3.31 µM (inactive); in experiment [15], 16.5 µM (inactive); in experiment [16], 14.8 µM (inactive); in [17], 1.61 µM (inactive). In addition, the GI50 in experiment [20] was 5.01 µM (inactive).

Turning to `C=C1C(=O)C23C(O)C1CC[C@H]2C12CCCC(C)(COC(C)=O)[C@H]1[C@H](O)[C@]3(O)OC2` (some centres undefined), the GI50 in [1] was 1.51 µM (inactive); in experiment [2], 0.211 µM (active); in experiment [3], 4.3 µM (inactive); in [18] it was 0.279 µM (active); in experiment [4], 3.09 µM (inactive); in experiment [19], 2.08 µM (inactive). Further, the GI50 in experiment [5] was 0.128 µM (active); in [6] it was 1.52 µM (inactive); in experiment [7], 1.1 µM (active); in experiment [8] it was 1.78 µM (inactive); in experiment [10], 0.138 µM (active); in [11], 2.44 µM (inactive). The GI50 in experiment [12] is 1.61 µM (inactive); in [13], 0.318 µM (active); in experiment [14] it was 1.85 µM (inactive); in experiment [15] it was 4.63 µM (inactive); in experiment [16], 3.44 µM (inactive); in experiment [17], 1.3 µM (inactive). In addition, the GI50 in [20] was 1.63 µM (inactive).

Take `O=C(Cc1ccccc1)NN1C(=O)/C(=C\c2ccccc2O)S/C1=N\c1ccccc1`: the GI50 in experiment [1], in [3], in experiment [4], in experiment [19], in experiment [7] and in experiment [8] was > 100 µM (inactive) each time. Moreover, the GI50 in experiment [9], in experiment [10], in experiment [11], in experiment [12], in [13] and in experiment [14] was > 100 µM (inactive) each time. In addition, the GI50 in [15], in experiment [16], in experiment [17] and in experiment [20] was > 100 µM (inactive) each time.

Turning to `O=S(=O)(O)c1cc(O)c(/N=N/c2ccc3ccccc3c2O)c2ccccc12` [ERIOCHROME BLUE BLACK B], the GI50 in experiment [1] was 24.6 µM (inactive); in [2] it was 21.9 µM (inactive); in [3], 14.3 µM (inactive); in experiment [18] it was 6.17 µM (inactive); in [4], 30.3 µM (inactive); in experiment [19] it was 3.59 µM (inactive). Moreover, the GI50 in [5] was 18 µM (inactive); in experiment [7], 13.3 µM (inactive); in experiment [9], 1.97 µM (inactive); in [10] it was 18 µM (inactive); in experiment [11] it was 16.1 µM (inactive); in experiment [12] it was 4.71 µM (inactive). The GI50 is 41.7 µM (inactive) in experiment [13]; 26.9 µM (inactive) in experiment [14]; 31.6 µM (inactive) in experiment [15]; 37.8 µM (inactive) in experiment [16]; 15.8 µM (inactive) in [17]; 66.2 µM (inactive) in experiment [20].
